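These data come from cells grown in 96-well plates and exposed to compound for 48 hours at five concentrations. GI50 = concentration required for 50% inhibition of growth. At the TGI there is no net growth.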
Legend:
Experiment in all cases: NCI tumour cell line growth inhibition, 48 h
SF-295 CNS = tested on: SF-295 CNS
IGROV1 ovarian = tested on: IGROV1 ovarian
CCRF-CEM leukemia = tested on: CCRF-CEM leukemia
NCI/ADR-RES ovarian = tested on: NCI/ADR-RES ovarian
TK-10 renal = tested on: TK-10 renal
SK-MEL-28 melanoma = tested on: SK-MEL-28 melanoma
UACC-257 melanoma = tested on: UACC-257 melanoma
CAKI-1 renal = tested on: CAKI-1 renal
NCI-H522 lung = tested on: NCI-H522 lung
BT-549 breast = tested on: BT-549 breast
OVCAR-4 ovarian = tested on: OVCAR-4 ovarian

Compound	TGI (SF-295 CNS) [µM]	TGI (IGROV1 ovarian) [µM]	TGI (CCRF-CEM leukemia) [µM]	TGI (NCI/ADR-RES ovarian) [µM]	TGI (TK-10 renal) [µM]	TGI (SK-MEL-28 melanoma) [µM]	TGI (UACC-257 melanoma) [µM]	TGI (CAKI-1 renal) [µM]	TGI (NCI-H522 lung) [µM]	TGI (BT-549 breast) [µM]	TGI (OVCAR-4 ovarian) [µM]	GI50 (SF-295 CNS) [nM]	GI50 (IGROV1 ovarian) [nM]	GI50 (BT-549 breast) [µM]	GI50 (SK-MEL-28 melanoma) [nM]	GI50 (UACC-257 melanoma) [nM]	GI50 (CAKI-1 renal) [nM]	GI50 (NCI-H522 lung) [nM]
C[C@]12CCC(=O)O[C@H]1CCCCO2	> 100	> 100	> 100	> 100	> 100	> 100	> 100	> 100	> 100	–	–	–	–	–	–	–	–	–
CCOC(=O)c1nc2ccc(C(F)(F)F)cc2nc1NCc1cc(OC)c(OC)c(OC)c1	> 100	> 100	–	> 100	> 100	> 100	> 100	> 100	> 100	> 100	–	–	–	–	–	–	–	–
Cc1ccc(SCC(CF)OC(C)n2cnc3c(=O)[nH]c(N)nc32)cc1 (stereo not given)	> 100	> 100	> 100	> 100	> 100	> 100	> 100	> 100	> 100	> 100	> 100	–	–	–	–	–	–	–
C=CCCN1CCc2c([nH]c3ccccc23)C1C(=O)O (stereo not given)	> 100	> 100	> 100	–	> 100	> 100	> 100	> 100	> 100	–	> 100	–	–	–	–	–	–	–
Cc1cc(S(=O)(=O)N=C2N(Cc3ccccc3)CCN2Cc2ccccc2)c(S)cc1Cl	> 100	> 100	> 100	> 100	> 100	> 100	> 100	> 100	> 100	> 100	> 100	–	–	–	–	–	–	–
O=c1cc(-c2ccc(F)cc2)[nH]c2ncc(Cl)cc12	78.5	> 100	77.1	> 88	> 100	> 100	> 100	> 100	80.4	> 100	> 100	–	–	–	–	–	–	–
O=C(O)Cc1cccc2c(=O)c3ccccc3oc12	> 100	> 100	> 100	> 100	> 100	> 100	> 100	> 100	> 100	> 100	> 100	–	–	–	–	–	–	–
CCCCN1C(=O)N(c2ccc(OCC)cc2)C2N(CCCC)C1C(C)(C)C2(C)C (stereo not given)	> 100	> 100	63.7	77.6	60.2	> 100	> 100	93.8	> 100	> 100	> 100	–	–	–	–	–	–	–
CCOC(=O)C(=Cc1[nH]c2ccccc2c1-c1c[nH]c2ccccc12)C(=O)OCC	25.3	24.8	–	47.5	26.1	–	23.8	30.8	> 100	33.1	20.3	–	–	–	–	–	–	–
O=Cc1ccc2c(c1)CC1(Cc3ccccc3C1)C2	94.5	46.1	25.5	79.8	> 100	–	44.1	–	> 100	–	48.7	–	–	–	–	–	–	–
NN/C(=N\S(=O)(=O)c1cc2ccccc2s1)Nc1ccc(Cl)cc1	43.2	36.4	–	46.4	51.2	75	37.3	39.4	–	35.6	38.5	–	–	–	–	–	–	–
CC(C)[Si](OC1=C(C(=O)N(C)c2cccc(Cl)c2)CCCC1)(C(C)C)C(C)C	23.3	32.3	49	26.3	30.4	28.6	27.8	25.9	–	–	26	–	–	–	–	–	–	–
O=C1/C(=N/O)Cc2c(Br)ccc(Br)c21	> 100	> 100	> 100	> 100	> 100	> 100	> 100	> 100	91.3	–	> 100	–	–	–	–	–	–	–
O=C1CSC(c2cccc(Oc3ccccc3)c2)N1c1ccc(Cl)cc1 (stereo not given)	> 100	–	> 100	> 100	71.9	> 100	46.5	> 100	49.4	> 100	> 100	–	–	–	–	–	–	–
COc1ccccc1/C=C1\SC(=S)N(/C=C2\C(=O)Oc3ccccc3C2=O)C1=O	–	> 100	> 100	> 100	95.9	–	62.2	3.23	95.7	80.9	> 100	–	–	–	–	–	–	–
CCOP(C)(=O)C(N)Cc1ccc(OC)c(OC)c1 (stereo not given)	> 100	> 100	> 100	> 100	> 100	> 100	–	> 100	> 100	> 100	> 100	–	–	–	–	–	–	–
CC(=O)OCC12C(=O)C[C@@H](C)C3(CC(c4ccoc4)OC3=O)C1CCC(OC(C)=O)C21CO1 (stereo not given in full)	> 100	> 100	–	> 100	> 100	> 100	> 100	> 100	> 100	> 100	> 100	–	–	–	–	–	–	–
CCOC(=O)CNc1c(OCc2ccccc2)c(=O)c1=O	> 100	> 100	> 100	> 100	> 100	> 100	> 100	–	> 100	> 100	> 100	–	–	–	–	–	–	–
Cc1cccc(N=NC(=O)NNc2cccc(C)c2C)c1C	–	> 100	–	–	> 100	> 100	> 100	> 100	53.6	> 100	> 100	–	–	–	–	–	–	–
N#CC(NC12CC3CC(CC(C3)C1)C2)c1ccccc1C(F)(F)F (stereo not given)	–	–	> 100	–	> 100	> 100	–	> 100	> 100	–	> 100	–	–	–	–	–	–	–
CON(C)C(=O)CNC(=O)OCC1c2ccccc2-c2ccccc21	> 100	> 100	> 100	> 100	> 100	> 100	> 100	–	> 100	> 100	> 100	–	–	–	–	–	–	–
CC1NC(=O)CC(c2ccccc2)N(N=O)C1c1ccccc1 (stereo not given)	> 100	> 100	71.6	> 62.9	–	> 100	> 100	> 100	49.7	–	> 87.5	–	–	–	–	–	–	–

Compound	TGI (SF-295 CNS) [µM]	TGI (IGROV1 ovarian) [µM]	TGI (CCRF-CEM leukemia) [µM]	TGI (NCI/ADR-RES ovarian) [µM]	TGI (TK-10 renal) [µM]	TGI (SK-MEL-28 melanoma) [µM]	TGI (UACC-257 melanoma) [µM]	TGI (CAKI-1 renal) [µM]	TGI (NCI-H522 lung) [µM]	TGI (BT-549 breast) [µM]	TGI (OVCAR-4 ovarian) [µM]	GI50 (SF-295 CNS) [nM]	GI50 (IGROV1 ovarian) [nM]	GI50 (BT-549 breast) [µM]	GI50 (SK-MEL-28 melanoma) [nM]	GI50 (UACC-257 melanoma) [nM]	GI50 (CAKI-1 renal) [nM]	GI50 (NCI-H522 lung) [nM]
COC1C=CC(O)C(CO)O1 (stereo not given)	> 100	> 100	> 100	–	> 100	> 100	> 100	–	> 100	–	> 100	–	–	–	–	–	–	–
Cc1nc(-c2cc3cc([N+](=O)[O-])ccc3oc2=O)cs1	> 100	> 100	> 100	–	> 100	> 100	> 100	> 100	–	> 100	> 100	–	–	–	–	–	–	–
COc1cc(C(=O)N(Cc2cccnc2)C(=S)N(Cc2cccnc2)C(=O)c2cc(OC)c(OC)c(OC)c2)cc(OC)c1OC	> 100	–	> 100	> 100	> 100	> 100	> 100	> 100	97.5	85.5	43.5	–	–	–	–	–	–	–
CC(C)(C)OC(=O)NC(Cc1ccc(OCc2ccccc2)cn1)C(=O)N1CCCCC1 (stereo not given)	> 100	> 100	> 100	59.2	> 100	> 100	47.3	> 100	> 100	60.7	–	–	–	–	–	–	–	–
O=C1C(CN2CCCCC2)CCC1CN1CCCCC1 (stereo not given)	> 46.4	49.7	3.97	64.2	37	41.2	47.1	25	11.1	34	–	–	–	–	–	–	–	–
O=C1CC(=Nc2ccc(Cl)cc2)C(c2ccccc2)N1c1ccccc1 (stereo not given)	> 100	> 100	–	95.8	> 100	> 100	> 100	5.71	7.22	41.6	> 100	–	–	–	–	–	–	–
CCN(CC)C(=S)N/N=C(/C)c1cccc(/C(C)=N\NC(=S)N(CC)CC)n1	6.7	8.08	> 100	10.5	11.7	3.88	11	5.29	16	–	7.32	–	–	–	–	–	–	–
NC(N)=N/N=C/c1c[nH]c2ccccc12	> 100	> 100	> 100	–	> 100	> 100	> 100	> 100	> 100	–	> 100	–	–	–	–	–	–	–
COc1ccc(C2OC[C@H]3O[C@@H](OCc4ccccc4)[C@H](O)[C@@H](O)[C@@H]3O2)cc1 (stereo not given in full)	> 100	> 100	> 100	> 100	> 100	> 100	> 100	> 100	–	> 100	> 100	–	–	–	–	–	–	–
O=P(Nc1ccc(Cl)cc1)(Oc1ccccc1)N(CCCl)CCCl (stereo not given)	> 100	> 100	> 100	–	> 100	> 100	> 100	> 100	> 100	–	> 100	–	–	–	–	–	–	–
CC(C)=CCC/C(C)=C/C=C/C(C)=C/C=C/C(C)=C/C=C/C=C(C)/C=C/C=C(C)/C=C/[C@H]1C(C(C)(C)O)CC[C@]1(C)O (stereo not given in full)	> 100	49.5	34	> 100	> 100	41.9	59.2	> 100	36.8	–	> 100	–	–	–	–	–	–	–
NC(Cc1ccccc1)C(=O)N[C@H]1c2ccsc2/C(=N/O)[C@H]1O (stereo not given in full)	> 100	> 100	> 100	> 100	> 100	> 100	> 100	> 100	–	> 100	> 100	–	–	–	–	–	–	–
COCN(CCC1=CCCCC1)C(=O)OC	> 100	> 100	–	> 100	> 100	> 100	> 100	> 100	> 100	> 100	> 100	–	–	–	–	–	–	–
CCOc1cn(C2CC(O)C(CO)O2)c(=O)[nH]c1=O (stereo not given)	–	> 100	> 100	> 100	> 100	> 100	> 100	> 100	–	> 100	> 100	–	–	–	–	–	–	–
C=CC(CCc1ccc(C(=O)OCC)cc1)c1c(N)nc(N)[nH]c1=O (stereo not given)	> 100	> 100	> 100	> 100	> 100	> 100	> 100	> 100	–	> 100	> 100	–	–	–	–	–	–	–
O=C1C=CC[C@H]2O[C@@H](COC(=O)Cc3ccccc3)C[C@H]2O1	> 100	54.6	> 100	> 100	65.5	74.4	> 100	> 100	–	–	85.9	–	–	–	–	–	–	–
CNc1ccc(C(=O)CC(O)CCC(C)C2OC(=O)CC(O)CC(=O)CC(O)CC(O)CC(O)CC(O)CC3(O)CC(O)C(C(=O)OC)C(CC(O[C@@H]4O[C@H](C)[C@@H](O)[C@H](N)[C@@H]4O)/C=C/C=C/C=C/C=C/C=C/C=C/C=C/C2C)O3)cc1 (stereo not given in full)	9.67	7.94	–	–	–	2.53	3.18	4.89	6.03	> 100	–	2630	2960	3.45	1120	1450	1880	2480
NC(N)=NCCC[C@H](N)C(=O)NCC(=O)N[C@@H](CC(=O)O)c1ncc(NC(=O)C(F)(F)F)o1	> 25	> 25	> 25	> 25	> 25	> 25	> 25	–	> 25	> 25	> 25	–	–	–	–	–	–	–
CC(=O)OC(/C=C/c1ccccc1)=C(OC(C)C)/C1=C(\c2ccccc2)SCCCSC1=O	> 100	–	> 100	> 100	> 100	> 100	> 100	> 100	–	> 100	> 100	–	–	–	–	–	–	–
Cc1ccc([N+](=O)[O-])cc1S(=O)(=O)Nc1ccc(C2=NNC(c3ccccc3)C2)cc1 (stereo not given)	21.7	> 100	–	92.2	> 100	> 100	40.2	53.6	57	52	54.4	–	–	–	–	–	–	–
CN1CCC(O)(C(C)(C)C)CC1	> 100	> 100	> 100	> 100	> 100	> 100	> 100	> 100	–	> 100	> 100	–	–	–	–	–	–	–
